Values quoted from earlier work as cited in patent US20080226719A1, “Combination of Rosiglitazone and Donepezil for Improvement of Cognitive Function” (priority 2005, published 2008).
Where two headings read alike, the source gives them in different places.

Legend:
patients with AD = settings: cited from earlier work
[1] = test system: individuals with mild cognitive impairment; settings: cited from earlier work; for rate at which patients developed AD: mild cognitive impairment

SMILES	patients unchanged or worse (patients with AD; APOE4 carriers with AD, after 30 weeks) [%]	patients showing an improvement in cognitive function (patients with AD; non-APOE4 carriers with AD) [%]	risk of progressing to AD compared to placebo ([1]; carriers of one or two copies of an APOE4 allele, after three years)	rate at which patients developed AD ([1]; at three years, versus placebo)	rate at which patients developed AD ([1]; first twelve months of administration)
Nc1c2c(nc3ccccc13)CCCC2 [tacrine]	60	83			
COc1cc2c(cc1OC)C(=O)C(CC1CCN(Cc3ccccc3)CC1)C2 (centres unmarked) [donepezil]			reduced risk of progressing to AD	no separation between groups	reduce the rate at which patients developed AD
